Measured values taken from patent publication US10829517B2, “Method for treating or/and preventing calcium deficiency-related diseases” (National Chung Hsing University, priority 2017, dated 2020).
Ends that are not written are not given here.

Key:
[1] = target: T1, calcium ion channel V6 (Homo sapiens, UniProt Q9H1D0); assay: Caco-2 calcium uptake with calcium ion channel V6 inhibitor ruthenium red; format: cell-based; conditions: 6 mM calcium ions, 400 μM peptide of SEQ ID No. 1
T1 construct: endogenous in cells; host or cells: Caco-2
T1 sequence (Q9H1D0 1-765): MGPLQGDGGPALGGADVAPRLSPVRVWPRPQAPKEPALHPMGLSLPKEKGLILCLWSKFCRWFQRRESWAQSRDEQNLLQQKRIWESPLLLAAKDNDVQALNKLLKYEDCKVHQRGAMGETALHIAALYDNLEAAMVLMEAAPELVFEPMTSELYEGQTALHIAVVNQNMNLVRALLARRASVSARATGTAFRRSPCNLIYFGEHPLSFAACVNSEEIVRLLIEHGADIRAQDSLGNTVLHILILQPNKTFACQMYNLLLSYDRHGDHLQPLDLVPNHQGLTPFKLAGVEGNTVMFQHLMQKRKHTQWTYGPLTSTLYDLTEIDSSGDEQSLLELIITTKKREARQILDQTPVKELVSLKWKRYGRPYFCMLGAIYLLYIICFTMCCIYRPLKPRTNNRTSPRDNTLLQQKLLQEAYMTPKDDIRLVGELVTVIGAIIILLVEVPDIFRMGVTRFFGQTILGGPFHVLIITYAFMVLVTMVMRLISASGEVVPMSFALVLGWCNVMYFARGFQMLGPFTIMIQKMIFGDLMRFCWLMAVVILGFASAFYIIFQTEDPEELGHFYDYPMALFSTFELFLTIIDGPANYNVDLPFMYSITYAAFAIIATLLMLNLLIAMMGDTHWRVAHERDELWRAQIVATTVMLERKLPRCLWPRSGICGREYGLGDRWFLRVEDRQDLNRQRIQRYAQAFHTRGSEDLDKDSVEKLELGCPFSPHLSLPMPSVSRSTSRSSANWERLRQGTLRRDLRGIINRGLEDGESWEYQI
Description: The steps were the same as those described in Example 5, except that the calcium ion channel V6 inhibitor: ruthenium red (RUR) was administered at the 154th second.

[2] = tested on: Caco-2 cells; assay: Calcium uptake in Fluo-3-AM loaded Caco-2 cells (fluorescence intensity); format: cell-based, human
Description: The Caco-2 cell monolayer was cultured in a 10 cm2 culture dish containing DEME medium, and the cells were separated by TrypLE (Invitrogen, Carlsbad, Calif.) and washed several times with a phosphate-free KRH (Krebs Ringer Heps) solution. 5 μL of 1 mM Fluo-3-AM dye and 20% (w/v) thermally reversible hydrogel (Pluronic F-127, RF127) solution were added at 37° C. for about 30 minutes to obtain a Caco-2 cell suspension.
The Caco-2 cell suspension containing Fluo-3-AM dye was thoroughly rinsed in phosphate-free KRH solution and aliquoted, each aliquot containing 5×10^7 cells. After each aliquot was pelletized, the cells were resuspended in 240 μL of the phosphate-free KRH solution, and then transferred to a 96-well plate for use.

[3] = 400 μM peptide, 6 mM calcium ions, compared with 400 μM CPP group and no-peptide group

N.N.N.N.N.N.N.N.N.N.N.N.N.N.[Cl-].[Cl-].[Cl-].[Cl-].[Cl-].[Cl-].[O-2].[O-2].[Ru+3].[Ru+3].[Ru+4] [ruthenium red]
percentage decrease of peak calcium ion (peak [Ca2+]) compared to the first group ([1]; ruthenium red 10 μM (second group) vs 0 μM): 41.9%
percentage decrease of peak calcium ion (peak [Ca2+]) compared to the first group ([1]; ruthenium red 20 μM (third group) vs 0 μM): 57.3%
percentage decrease of peak calcium ion (peak [Ca2+]) compared to the first group ([1]; ruthenium red 50 μM (fourth group) vs 0 μM): 72.0%
percentage decrease of peak calcium ion (peak [Ca2+]) compared to the first group ([1]; ruthenium red 100 μM (fifth group) vs 0 μM): 86.7%

SEQ ID No. 2: peptide of SEQ ID No. 1 with the C-terminal 5 amino acids removed (TEVPAINTIASA)
calcium-absorption promotion ability ([2]; Example 17, FIG. 36, Caco-2 cells): have the ability to promote calcium absorption

TEVPAINTIASAEPTVH [SEQ ID No. 1]
calcium ion concentration (peak [Ca2+]) in Caco-2 cells [2, 3]: significantly increased
fluorescence intensity in Caco-2 cells [2, 3]: significantly higher
fluorescence intensity in Caco-2 cells ([2]; at the 442th second, 0 mM calcium ions (first group), 400 μM peptide): 7,059,148
fluorescence intensity in Caco-2 cells ([2]; at the 442th second, 0.3 mM calcium ions (second group), 400 μM peptide): 9,780,517
fluorescence intensity in Caco-2 cells ([2]; at the 442th second, 0.5 mM calcium ions (third group), 400 μM peptide): 9,720,348
fluorescence intensity in Caco-2 cells ([2]; at the 442th second, 1.5 mM calcium ions (fourth group), 400 μM peptide): 10,604,175
fluorescence intensity in Caco-2 cells ([2]; at the 442th second, 3 mM calcium ions (fifth group), 400 μM peptide): 10,986,171
fluorescence intensity in Caco-2 cells ([2]; at the 442th second, 6 mM calcium ions (sixth group), 400 μM peptide): 10,912,015
